Test results published in patent publication EP0830136B1, “NEW CRY[…] […]” (priority 1995, dated 1996).
“Also recorded” adds a separate entry of the source. Like-named read-outs stand apart in the source and are kept apart here.

What was measured:
KB = test: In vitro cytotoxicity, KB cell line; type: cell-based, human; details: read-out: RB IC50
LoVo = test: In vitro cytotoxicity, LoVo cell line; type: cell-based, human
Colon 51 = details: SC Tumor Colon 51
Mam 16/C = details: SC Tumor Mam 16/C
tumors implanted in mice = details: for T/C values / gross log kill values: summary over trials, partly worded 'mostly'; for in vivo antitumor activity: statement in words
[1] = test system: human tumor cell lines KB and LoVo; test: In vitro cytotoxicity, KB and LoVo; details: read-out: cytotoxicities IC50's
[2] = Methanolysis (solvolysis) of the C-D ester bond; type: physicochemical; details: methanol used in the isolation scheme
physchem = details: aqueous base, pH 11
SKOV3 cells = test: Cell proliferation assay (SRB staining), SKOV3; type: cell-based, Human; details: 24 hours with IC50 doses
SKVLB1 cells = test: cells; type: cell-based; details: Homo sapiens, SKVLB1, 48 h, read-out: SKVLB1 IC50 (nM)
Experimental: The Jurkat T cell leukemia line and A-10 rat aortic smooth muscle cells were obtained from the American Type Culture Collection and were cultured in BME containing 10% FBS and 50µg/mL gentamycin sulfate. […] Both cell lines were maintained in BME containing 10% FBS and 50µg/mL gentamycin sulfate.
Cell proliferation assays were performed as described by Skehan et al.^11 For Jurkat cells, cultures were treated with the indicated drugs as described in Skehan^11 and total cell numbers were determined by counting the cells in a hemacytometer. The percentage of cells in mitosis was determined by staining with 0.4% Giemsa in PBS followed by three rapid washes with PBS. At least 1000 cells per treatment were scored for the presence of mitotic figures and the mitotic index was calculated as the ratio of cells with mitotic figures to the total number of cells counted.

[3] = test system: A-10 rat aortic smooth muscle cells; test: Immunofluorescence of cytoskeleton in A-10 cells; type: cell-based; details: A-10 cells, 10µM taxol
Experimental: A-10 cells were grown to near-confluency on glass coverslips in BME/10% FBS. Compounds in PBS were added to the indicated final concentrations and cells were incubated for an additional 24 hours. For the staining of microtubules and intermediate filaments, the cells were fixed with cold methanol and incubated with PBS containing 10% calf serum to block nonspecific binding sites. Cells were then incubated at 37°C for 60 min with either monoclonal anti-β-tubulin or with monoclonal anti-vimentin at dilutions recommended by the manufacturer. Bound primary antibodies were subsequently visualized by a 45-minute incubation with fluorescein-conjugated rabbit antimouse IgG. The coverslips were mounted on microscope slides and the fluorescence patterns were examined and photographed using a Zeiss Photomicroscope ill equipped with epifluorescence optics for fluorescein. […] PBS containing 100nM TRITC-phalloidin was then added and the mixture was allowed to incubate for 45 min at 37° C. The cells were washed rapidly three times with PBS before the coverslips were mounted and immediately photographed as described above.

Mam 16/Taxol = details: Exp # 1733; SC Tumor Mam 16/Taxol; 5 Inj. IV; 16.5 mg/kg Total Dose
Experimental: (§1) Gross log kill is defined as T-C/3.2 Td where T is the median time in days for the tumors of the treated group to reach 750mg, C is the median time in days for the tumors of the control group to reach 750mg, and Td is the tumor volume doubling time (T.H. Corbett et al., Cytotoxic Anticancer Drugs: Models and Concepts for Drug Discovery and Development, pp 35-87; Kluwer: Norwell, 1992).

M17/0 (Adr. Sens.) = details: Exp # 1833; SC Tumor M17/0 (Adr. Sens.); 5 Inj. IV; 5.4 mg/kg Total Dose
Experimental: as §1

[4] = test system: Human Sm Cell L. DMS273 SCID; details: Exp # 1596; SC Tumor Human Sm Cell L. DMS273 SCID; 6 Inj. IV; 7.3 mg/kg Total Dose
Experimental: as §1

MX-1 Human Breast = details: Exp # 1806; SC Tumor MX-1 Human Breast; 8 Inj. IV; 12 mg/kg Total Dose
Experimental: as §1

H125 Human Adenosq-lung = details: Exp # 1823; SC Tumor H125 Human Adenosq-lung; 8 Inj. IV; 14.4 mg/kg Total Dose
Experimental: as §1

LNCaP Human Prostate = details: Exp # 1841; SC Tumor LNCaP Human Prostate; 6 Inj. IV; 6.5 mg/kg Total Dose
Experimental: as §1

[5] = Exp # 1887 B, SC Tumor C38, 6 Inj. IV, 30 mg/kg TD
[6] = Exp # 1825, SC Tumor P03, 11 Inj. IV, 106 mg/kg TD
[7] = Exp # 1900, 9 Inj. IV, 67.5 mg/kg TD
[8] = Exp # 1885, 7 Inj. IV, 21.3 mg/kg TD
[9] = Exp # 1813, SC Tumor P03, 9 Inj. IV, 27 mg/kg TD
[10] = Exp # 1843, SC Tumor P03, 4 Inj. IV, 28/5 mg/kg TD
[11] = Exp # 1560, SC Tumor Colon 38, 8 Inj. IV, 10.3 mg/kg Total Dose
[12] = Exp # 1636, 7 Inj. IV, 28.1 mg/kg Total Dose
[13] = Exp # 1720, 5 Inj. IV, 13.2 mg/kg Total Dose

Question: Which IC50 (KB) does the source give for COc1ccc(C[C@H]2NC(=O)/C=C/C[C@@H]([C@H](C)[C@@H](O)[C@@H](Cl)c3ccccc3)OC(=O)[C@H](CC(C)C)OC(=O)[C@H](C)CNC2=O)cc1Cl [Cryptophycin 8] here?
Answer: 0.019 nM

Question: What about the IC50 (LoVo) of the same compound?
Answer: 0.0091 nM

Question: What about the “% Body Wt. Loss at Nadir” value (Colon 38; [5]) of the same compound?
Answer: -2%

Question: And the Cures (Colon 38; [5])?
Answer: 1/5

Question: And the “Log Kill” value (Colon 38; [5])?
Answer: 2.8

Question: What about the T/C (Colon 38; [5]) of the same compound?
Answer: 0%

Question: And the “% Body Wt. Loss at Nadir” value (Panc 03; [6])?
Answer: -6%

Question: And the Cures (Panc 03; [6])?
Answer: 0/5

Question: What about the T/C (Panc 03; [6]) of the same compound?
Answer: 4%

Question: What about the “Log Kill” value (Panc 03; mouse, in vivo, 106 mg/kg) of the same compound?
Answer: 4.6

Question: And the “% Body Wt. Loss at Nadir” value (Colon 51; [7])?
Answer: -1%

Question: And the Cures (Colon 51; [7])?
Answer: 0/5

Question: And the “Log Kill” value (Colon 51; [7])?
Answer: 1.8

Question: And the T/C (Colon 51; [7])?
Answer: 7%

Question: What about the “% Body Wt. Loss at Nadir” value (Mam 16/C; [8]) of the same compound?
Answer: -4.5%

Question: What about the Cures (Mam 16/C; [8]) of the same compound?
Answer: 0/5

Question: And the “Log Kill” value (Mam 16/C; [8])?
Answer: 2.5

Question: And the T/C (Mam 16/C; [8])?
Answer: 6%

Question: And the T/C values (tumors implanted in mice)?
Answer: 0%

Question: And the “gross log kill values” (tumors implanted in mice)?
Answer: > 2.8

Question: What about the IC50 [1] of the same compound?
Answer: 0.009 to 0.019 nM

Question: Which “methanolysis of the C-D ester bond” value [2] does the source give for COc1ccc(C[C@H]2NC(=O)/C=C/C[C@@H]([C@H](C)[C@H]3O[C@@H]3c3ccccc3)OC(=O)[C@H](CC(C)C)OC(=O)CCNC2=O)cc1Cl [Cryptophycin 21] here?
Answer: considerable methanolysis; also recorded: much more susceptible to methanolysis than Cryptophycin 1

Question: And the “% Body Wt. Loss at Nadir” value (Panc 03; [9])?
Answer: -11%

Question: And the Cures (Panc 03; [9])?
Answer: 0/5

Question: What about the “Log Kill” value (Panc 03; [9]) of the same compound?
Answer: None

Question: And the T/C (Panc 03; [9])?
Answer: 61%

Question: And the dead (Panc 03; [9])?
Answer: 1/5

Question: What about the “in vivo antitumor activity” value (tumors implanted in mice) of the same compound?
Answer: inactive

Question: And the half-life (physchem)?
Answer: 15 min

Question: For COc1ccc(C[C@H]2NC(=O)/C=C/C[C@@H]([C@H](C)[C@@H](O)[C@@H](Br)c3ccccc3)OC(=O)[C@H](CC(C)C)OC(=O)[C@H](C)CNC2=O)cc1Cl [Cryptophycin 25], which “T/C and gross log kill values, comparison in words” value (tumors implanted in mice; mouse, in vivo) is on record?
Answer: comparable with those for Cryptophycin 1

Question: For CC(=O)O[C@H]1C(=O)[C@@]2(C)[C@H]([C@H](OC(=O)c3ccccc3)[C@]3(O)C[C@H](OC(=O)[C@H](O)[C@@H](NC(=O)c4ccccc4)c4ccccc4)C(C)=C1C3(C)C)[C@]1(OC(C)=O)CO[C@@H]1C[C@@H]2O [taxol], which “increase in cell number during treatment” value (SKOV3 cells) is on record?
Answer: 25%

Question: And the IC50 (SKVLB1 cells)?
Answer: 8000 nM

Question: And the “microtubule organization in taxol-treated cells” value [3]?
Answer: extensively bundled

Question: For COc1ccc(C[C@H]2NC(=O)/C=C/C[C@@H]([C@H](C)/C=C/c3ccccc3)OC(=O)[C@H](CC(C)C)OC(=O)[C@H](C)CNC2=O)cc1Cl [Cryptophycin 3], which IC50 (KB) is on record?
Answer: 3.1 to 4.6 nM

Question: And the IC50 (LoVo)?
Answer: 1.9 to 5.8 nM

Question: What about the “% Body Wt. Loss at Nadir” value (Panc 03; [10]) of the same compound?
Answer: -9%

Question: And the Cures (Panc 03; [10])?
Answer: 0/5

Question: And the “Log Kill” value (Panc 03; [10])?
Answer: <1

Question: And the T/C (Panc 03; [10])?
Answer: 54%

Question: What about the “in vivo antitumor activity” value (tumors implanted in mice) of the same compound?
Answer: antitumor activity is greatly diminished

Question: And the IC50 [1]?
Answer: 3.5 to 5.8 nM

Question: Which IC50 (KB) does the source give for COc1ccc(C[C@H]2NC(=O)/C=C/C[C@@H]([C@H](C)[C@H]3O[C@@H]3c3ccccc3)OC(=O)[C@H](CC(C)C)OC(=O)[C@H](C)CNC2=O)cc1Cl [Cryptophycin 1] here?
Answer: 0.0092 nM

Question: What about the IC50 (LoVo) of the same compound?
Answer: 0.0104 nM

Question: And the “methanolysis of the C-D ester bond” value [2]?
Answer: considerable methanolysis

Question: And the “% Body Wt. Loss at Nadir” value (Colon 38; [11])?
Answer: Gain

Question: And the Cures (Colon 38; [11])?
Answer: 0/5

Question: And the “Log Kill” value (Colon 38; [11])?
Answer: 1.5

Question: And the T/C (Colon 38; [11])?
Answer: 6%

Question: What about the “% Body Wt. Loss at Nadir” value (Colon 51; [12]) of the same compound?
Answer: -11%

Question: What about the Cures (Colon 51; [12]) of the same compound?
Answer: 0/5

Question: What about the “Log Kill” value (Colon 51; [12]) of the same compound?
Answer: 1.3

Question: And the T/C (Colon 51; [12])?
Answer: 7%

Question: And the “% Body Wt. Loss at Nadir” value (Mam 16/C; [13])?
Answer: -1%

Question: What about the Cures (Mam 16/C; [13]) of the same compound?
Answer: 0/5

Question: And the “Log Kill” value (Mam 16/C; [13])?
Answer: 1.4

Question: What about the T/C (Mam 16/C; [13]) of the same compound?
Answer: 5%

Question: What about the “% Body Wt. Loss at Nadir” value (Mam 16/Taxol) of the same compound?
Answer: 0%

Question: What about the Cures (Mam 16/Taxol) of the same compound?
Answer: 0/5

Question: What about the “Log Kill” value (Mam 16/Taxol) of the same compound?
Answer: 1.8

Question: What about the T/C (Mam 16/Taxol) of the same compound?
Answer: 2%

Question: What about the “% Body Wt. Loss at Nadir” value (M17/0 (Adr. Sens.)) of the same compound?
Answer: -10%

Question: And the Cures (M17/0 (Adr. Sens.))?
Answer: 0/5

Question: And the “Log Kill” value (M17/0 (Adr. Sens.))?
Answer: <1

Question: What about the T/C (M17/0 (Adr. Sens.)) of the same compound?
Answer: 23%

Question: What about the “% Body Wt. Loss at Nadir” value [4] of the same compound?
Answer: 0%

Question: And the Cures [4]?
Answer: 0/5

Question: And the “Log Kill” value [4]?
Answer: <1

Question: And the T/C [4]?
Answer: 27%

Question: And the “% Body Wt. Loss at Nadir” value (MX-1 Human Breast)?
Answer: -3%

Question: What about the Cures (MX-1 Human Breast) of the same compound?
Answer: 0/5

Question: And the “Log Kill” value (MX-1 Human Breast)?
Answer: 2.0

Question: And the T/C (MX-1 Human Breast)?
Answer: 3%

Question: And the “% Body Wt. Loss at Nadir” value (H125 Human Adenosq-lung)?
Answer: -15%

Question: And the Cures (H125 Human Adenosq-lung)?
Answer: 0/5

Question: And the “Log Kill” value (H125 Human Adenosq-lung)?
Answer: 1.1

Question: What about the T/C (H125 Human Adenosq-lung) of the same compound?
Answer: 9%

Question: What about the dead (H125 Human Adenosq-lung) of the same compound?
Answer: 1/5

Question: What about the “% Body Wt. Loss at Nadir” value (LNCaP Human Prostate) of the same compound?
Answer: -6%

Question: And the Cures (LNCaP Human Prostate)?
Answer: 0/5

Question: What about the “Log Kill” value (LNCaP Human Prostate) of the same compound?
Answer: <1

Question: What about the T/C (LNCaP Human Prostate) of the same compound?
Answer: 26%

Question: And the toxicity in animals (tumors implanted in mice; compared with Cryptophycin 8)?
Answer: appreciable toxicity

Question: What about the T/C values (tumors implanted in mice) of the same compound?
Answer: > 0%

Question: What about the “gross log kill values” (tumors implanted in mice) of the same compound?
Answer: < 2.0

Question: And the half-life (physchem)?
Answer: 49.8 min

Question: What about the IC50 [1] of the same compound?
Answer: 0.009 to 0.029 nM
